5 compounds from patent publication US20090137661A1, “PLANT DERIVED COMPOUNDS AND COMPOUND FORMULAE CONTAINING THE SAME FOR THE TREATMENT OF CERVICAL CANCER” (priority 2007, published 2009) can be followed below.

The IC50 is the concentration that gives 50% inhibition.

Converted amounts (≈) assume the structure as drawn. Structures can show the parent of a compound that is named as a salt. Where two headings read alike, the source gives them in different places.

For data set [1], the system named is HPV 16 pseudovirus. In words: Screening for anti-infection compounds (GFP-expressing HPV 16 pseudovirus infecting HeLa cells). It is filed as cell-based, human papilloma virus 16. Here is the method:
[…] were co-transfected with codon-modified papillomavirus capsid genes, L1 and L2, plasmid: p16shell, and a GFP reporter plasmid, pClneo-GFP, to monitor the infectivity of the stock.
The GFP-expressing HPV 16 pseudoviruses were prepared and harvested in accordance with the protocol provided by the National Cancer Institute (USA). Said protocol is available on line at http://home.ccr.cancer.gov/lco/production.asp which is incorporated herein by reference in its entirety.
In the present application, the GFP-expressing HPV 16 pseudoviruses used have titers of about 4*10^8 infectious units per ml.
HeLa cells were seeded in 96-well plates at a density of 6×10^3 cells per well. 24 hours later, 2×HPV 16 pseudoviruses of various volumes were added. The signal to background ratio of each volume of the HPV 16 pseudoviruses was illustrated in FIG. 2.
When choosing screening platform, the infection rate should be around 20%. […] Under this dosage, the signal to background ratio is 2.0-2.5.
(§1) Carrageenan was used as positive control. […] The cell survival rate and IC50 of each sample were obtained in accordance with the method stated above.

For data set [2], the system named is HeLa cells. Briefly: MTT assay within the anti-infection screening platform. Format: cell-based, human. The following applies: 48 hours, concentrations inhibiting HPV 16 pseudovirus.
Source text: as §1
(In general: Tetrazolium assays rely on reduction of a dye to a coloured formazan, in cell work by metabolically active cells.)

Data set [3] has as its system HeLa cells. In words: Cytotoxicity assay (MTT assay) on HeLa cells. The following applies: for IC50: Homo sapiens, HeLa. Here is the method:
HeLa cell line was obtained from Dr. S. S. Shen (Biomedical Engineering Research Laboratories of Industrial Technology Research Institute of Taiwan). HeLa cells are adherent cells and were propagated and maintained in Dulbecco's modified Eagle's medium (DMEM) supplemented with 10% fetal bovine serum (FBS), […] sodium bicarbonate (NaHCO3), 1 mM sodium pyruvate, and 0.1 mM non-essential amino acid.
(§2) Cytotoxicity Assay (MTT Assay)
The cytotoxicity of the compounds set forth herein to HeLa cells and HUVEC cells were determined by the MTT assay. The HUVEC cells were used to understand the cytotoxicity of said compounds to normal human cells. Besides, doxorubicin HCl was used as a comparative example so as to investigate the efficacy of the compounds according to the embodiments of the present invention.
Briefly, the MTT assay comprises the following steps: • (A) Cells were seeded in 96-well plates 3 hours before treatment, wherein the density of HeLa cell is 1×10^4 cells per well and the density of HUVEC cell is 2×10^4 cells per well; • (B) Cells were then treated with various concentrations of tested samples and incubated for a predetermined period (24, 48, and 72 hours); • (C) After the predetermined periods expired, the tested samples were removed and 100 μl MTT reagent (1 mg/ml) was added to each well; • (D) The plates were incubated at 37° C. with 5% of CO2 for 5 hours; • (E) The MTT reagent was removed and 100 μl DMSO was added to each well; • (F) The optical density (O.D.) of each well was determined by ELISA reader at a wavelength of 560 nm.
Each experiment was repeated for 3 times and the result shown in the tables herein were the mean value of the 3 repetitions. The O.D. of the vehicle control and experimental groups were recorded. The cell survival rate of each sample was calculated as follows:
Cell survival rate(%)=O.D.control/O.D.experimental*100%
Then, the cell survival rate was plotted against the compound concentration and the IC50 value of each compound was calculated by the GraFit data analysis software (Erithacus Software Ltd.).

Data set [4] concerns HUVEC cells. Briefly: Cytotoxicity assay (MTT assay) on HUVEC cells. It is filed as cell-based, human. The note with it: for IC50 at 24 hours, HUVEC / IC50 at 48 hours, HUVEC / IC50 at 72 hours, HUVEC / IC50: HUVEC cells; for IC50: Homo sapiens.
Source text: Human umbilical vein endothelial cells (HUVEC) were purchased from Food Industry Research and Development Institute in Hsin-Chu City, Taiwan. HUVEC cells were propagated and maintained in Medium 199 supplemented with 10% FBS, Heparin, and […].
as §2

Turning to `O=c1cc(-c2ccccc2)oc2cc(O)c(O)c(O)c12` [Compound C, baicalein], in data set [1] (Pseudovirus, HeLa, 48 h, read-out: IC50 for inhibiting HPV 16 pseudoviruses), the half-maximal inhibitory concentration (IC50) was found to be 8.2 µg/mL (≈ 30.3 µM). In data set [2], the “survival rates of HeLa cells in anti-infection screening” value is “higher than 80%”.

`COc1ccc2cc3[n+](cc2c1OC)CCc1cc2c(cc1-3)OCO2.[Cl-]` [Compound H, berberine hydrochloride]: the “cytotoxicity to HeLa cells compared with Doxorubicin HCl” value in data set [3] is “higher cytotoxicity”. Moreover, the “HeLa Cell Survival Rate” value in data set [3] (0.1 μg/ml, 24 hrs) was 89%; in data set [3] (0.1 μg/ml, 48 hrs), 98%; in data set [3] (0.1 μg/ml, 72 hrs), 98%; in data set [3] (1 μg/ml, 24 hrs) it was 87%; in data set [3] (1 μg/ml, 48 hrs), 84%; in data set [3] (1 μg/ml, 72 hrs), 91%. Further, the “HeLa Cell Survival Rate” value was found to be 82% in data set [3] (10 μg/ml, 24 hrs); 71% in data set [3] (10 μg/ml, 48 hrs); 62% in data set [3] (10 μg/ml, 72 hrs); 28% in data set [3] (100 μg/ml, 24 hrs); 17% in data set [3] (100 μg/ml, 48 hrs); 10% in data set [3] (100 μg/ml, 72 hrs). For the same compound, the “HUVEC/HeLa ratio of IC50” value in data set [3] (24 hours) is recorded as 0.8; in data set [3] (48 hours), 0.7; in data set [3] (72 hours) it was 0.6. In addition, the “IC50 at 24 hours, HeLa” value in data set [3] (HeLa cells, 24 hours) amounted to 39 µg/mL. The half-maximal inhibitory concentration (IC50) at 72 hours, HeLa in data set [3] (HeLa cells, 72 hours) came to 15 µg/mL. The IC50 for inhibiting HeLa cells as restated in text in data set [3] (values taken from tables 4 and 5 (48 hours), unit inferred) amounted to 21 µg/mL. In addition, the “HUVEC Cell Survival Rate” value in data set [4] (1 μg/ml, 24 hrs) came to 89%; in data set [4] (1 μg/ml, 48 hrs) it was 81%; in data set [4] (1 μg/ml, 72 hrs), 77%; in data set [4] (10 μg/ml, 24 hrs) it was 76%; in data set [4] (10 μg/ml, 48 hrs), 64%; in data set [4] (10 μg/ml, 72 hrs) it was 51%. Further, the “HUVEC Cell Survival Rate” value in data set [4] (100 μg/ml, 24 hrs) is reported as 23%; in data set [4] (100 μg/ml, 48 hrs), 16%; in data set [4] (100 μg/ml, 72 hrs) it was 15%. Also, the half-maximal inhibitory concentration (IC50) at 24 hours, HUVEC in data set [4] (24 hours) is 30 µg/mL. The “IC50 at 48 hours, HUVEC” value in data set [4] (48 hours) is 15 µg/mL. Moreover, the “IC50 at 72 hours, HUVEC” value in data set [4] (72 hours) came out at 9 µg/mL.

In the case of `COc1cccc2c1C(=O)c1c(O)c3c(c(O)c1C2=O)C[C@@](O)(C(=O)CO)C[C@@H]3O[C@H]1C[C@H](N)[C@H](O)[C@H](C)O1` [Doxorubin HCl, Doxorubicin HCl, reference compound], the “HeLa Cell Survival Rate” value in data set [3] (0.00058 μg/ml, 24 hrs) was found to be 96%; in data set [3] (0.00058 μg/ml, 48 hrs), 100%; in data set [3] (0.00058 μg/ml, 72 hrs) it was 97%; in data set [3] (0.0058 μg/ml, 24 hrs), 95%; in data set [3] (0.0058 μg/ml, 48 hrs) it was 92%; in data set [3] (0.0058 μg/ml, 72 hrs), 89%. The “HeLa Cell Survival Rate” value is recorded as 84% in data set [3] (0.058 μg/ml, 24 hrs); 81% in data set [3] (0.058 μg/ml, 48 hrs); 72% in data set [3] (0.058 μg/ml, 72 hrs); 46% in data set [3] (0.58 μg/ml, 24 hrs); 23% in data set [3] (0.58 μg/ml, 48 hrs); 11% in data set [3] (0.58 μg/ml, 72 hrs). The “HUVEC/HeLa ratio of IC50” value is >1.2 in data set [3] (24 hours), 1.5 in data set [3] (48 hours) and 1.8 in data set [3] (72 hours). The IC50 is 0.48 µg/mL in data set [3] (24 h, read-out: IC50 at 24 hours, HeLa); 0.2 µg/mL in data set [3] (48 h, read-out: IC50 at 48 hours, HeLa); 0.12 µg/mL in data set [3] (72 h, read-out: IC50 at 72 hours, HeLa); > 0.58 µg/mL in data set [4] (24 hours, read-out: IC50 at 24 hours, HUVEC); 0.299 µg/mL in data set [4] (48 hours, read-out: IC50 at 48 hours, HUVEC); 0.22 µg/mL in data set [4] (72 hours, read-out: IC50 at 72 hours, HUVEC). Also, the “HUVEC Cell Survival Rate” value in data set [4] (0.145 μg/ml, 24 hrs) is recorded as 111%; in data set [4] (0.145 μg/ml, 48 hrs), 77%; in data set [4] (0.145 μg/ml, 72 hrs) it was 68%; in data set [4] (0.290 μg/ml, 24 hrs), 100%; in data set [4] (0.290 μg/ml, 48 hrs) it was 56%; in data set [4] (0.290 μg/ml, 72 hrs), 38%. For the same compound, the “HUVEC Cell Survival Rate” value in data set [4] (0.580 μg/ml, 24 hrs) came out at 90%; in data set [4] (0.580 μg/ml, 48 hrs) it was 19%; in data set [4] (0.580 μg/ml, 72 hrs), 14%.

Take Carrageenan [reference compound]: the “IC50 for inhibiting HPV 16 pseudoviruses” value in data set [1] (HeLa cells infected with 0.25 μl HPV 16 pseudovirus per well, 48 hours) is “about 0.07 μg/ml”.

Take isopsoralen [Compound A]: the “HeLa Cell Survival Rate” value in data set [3] (0.125 μg/ml, 24 hrs) is recorded as 91%; in data set [3] (0.125 μg/ml, 48 hrs) it was 99%; in data set [3] (0.125 μg/ml, 72 hrs), 98%; in data set [3] (1.25 μg/ml, 24 hrs), 88%; in data set [3] (1.25 μg/ml, 48 hrs), 75%; in data set [3] (1.25 μg/ml, 72 hrs) it was 69%. The “HeLa Cell Survival Rate” value in data set [3] (12.5 μg/ml, 24 hrs) stood at 70%; in data set [3] (12.5 μg/ml, 48 hrs), 30%; in data set [3] (12.5 μg/ml, 72 hrs), 10%; in data set [3] (125 μg/ml, 24 hrs) it was 18%; in data set [3] (125 μg/ml, 48 hrs) it was 11%; in data set [3] (125 μg/ml, 72 hrs), 7%. Further, the “HUVEC/HeLa ratio of IC50” value in data set [3] (24 hours) was >4.6; in data set [3] (48 hours) it was 11.4; in data set [3] (72 hours) it was 19. Moreover, the 50% inhibitory concentration (IC50) at 24 hours, HeLa in data set [3] (HeLa cells, 24 hours) came out at 27 µg/mL. The “IC50 at 48 hours, HeLa” value in data set [3] (HeLa cells, 48 hours) is 5 µg/mL. The 50% inhibitory concentration (IC50) at 72 hours, HeLa in data set [3] (HeLa cells, 72 hours) turned out to be 2 µg/mL. In addition, the “cytotoxicity to HeLa cells compared with Doxorubicin HCl” value in data set [3] (under the corresponding conditions) is “higher cytotoxicity”. Also, the “HUVEC Cell Survival Rate” value in data set [4] (0.125 μg/ml, 24 hrs) is listed as 103%; in data set [4] (0.125 μg/ml, 48 hrs), 104%; in data set [4] (0.125 μg/ml, 72 hrs) it was 92%; in data set [4] (1.25 μg/ml, 24 hrs), 103%; in data set [4] (1.25 μg/ml, 48 hrs), 96%; in data set [4] (1.25 μg/ml, 72 hrs), 87%. Besides, the “HUVEC Cell Survival Rate” value in data set [4] (12.5 μg/ml, 24 hrs) stood at 100%; in data set [4] (12.5 μg/ml, 48 hrs), 83%; in data set [4] (12.5 μg/ml, 72 hrs), 80%; in data set [4] (125 μg/ml, 24 hrs), 67%; in data set [4] (125 μg/ml, 48 hrs) it was 31%; in data set [4] (125 μg/ml, 72 hrs), 19%. Moreover, in data set [4] (24 hours), the “IC50 at 24 hours, HUVEC” value is >125 µg/mL. In addition, the “IC50 at 48 hours, HUVEC” value in data set [4] (48 hours) turned out to be 57 µg/mL. The half-inhibitory concentration (IC50) at 72 hours, HUVEC in data set [4] (72 hours) is 38 µg/mL.
